Laboratory results taken from PubChem BioAssay AID248 (DTP/NCI, 2004).
Several values for one entry are separate records, joined by “and”; a condition that tells them apart may be missing. Identical values can stand only once. Inconclusive results and toxic doses are left out. No stated cut-off is given here; in the data, active means T/C of 150% or more; inactive means T/C below 125%.

System: L1210 leukemia ip in BDF1 mice, survival T/C
Assay: NCI In Vivo Anticancer Drug Screen. Data for tumor model L1210 Leukemia (intraperitoneal) in B6D2F1 (BDF1) mice
Conditions: endpoint: mean survival time, higher = longer survival
Summary of the method: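 Transplanted-tumor mice were given test agent; controls received vehicle only. Survival readings from the two groups were divided (treated over control).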

[1] = dose: 100.0 mg/kg/injection, schedule: Q04DX003 (ip), vehicle: saline
[2] = dose: 100.0 mg/kg/injection, schedule: Q04DX002 (ip), vehicle: saline with Tween-80
[3] = dose: 100.0 mg/kg/injection, schedule: Q04DX003 (ip), vehicle: saline with Tween-80
[4] = dose: 200.0 mg/kg/injection, schedule: Q04DX002 (ip), vehicle: saline with Tween-80
[5] = dose: 200.0 mg/kg/injection, schedule: Q04DX003 (ip), vehicle: saline with Tween-80
[6] = dose: 400.0 mg/kg/injection, schedule: Q04DX002 (ip), vehicle: saline with Tween-80
[7] = dose: 400.0 mg/kg/injection, schedule: Q04DX003 (ip), vehicle: saline with Tween-80
[8] = dose: 100.0 mg/kg/injection, schedule: Q01DX009 (ip), vehicle: Klucel (hydroxypropylcellulose) (HPC)
[9] = dose: 100.0 mg/kg/injection, schedule: Q04DX003 (ip), vehicle: Klucel (hydroxypropylcellulose) (HPC)
[10] = dose: 200.0 mg/kg/injection, schedule: Q01DX009 (ip), vehicle: Klucel (hydroxypropylcellulose) (HPC)
[11] = dose: 200.0 mg/kg/injection, schedule: Q04DX003 (ip), vehicle: Klucel (hydroxypropylcellulose) (HPC)
[12] = dose: 400.0 mg/kg/injection, schedule: Q01DX009 (ip), vehicle: Klucel (hydroxypropylcellulose) (HPC)
[13] = dose: 400.0 mg/kg/injection, schedule: Q04DX003 (ip), vehicle: Klucel (hydroxypropylcellulose) (HPC)
[14] = dose: 25.0 mg/kg/injection, schedule: Q01DX009 (ip), vehicle: Klucel (hydroxypropylcellulose) (HPC)
[15] = dose: 50.0 mg/kg/injection, schedule: Q01DX009 (ip), vehicle: Klucel (hydroxypropylcellulose) (HPC)
[16] = dose: 100.0 mg/kg/injection, schedule: Q04DX002 (ip), vehicle: Klucel (hydroxypropylcellulose) (HPC)

Measured: T/C

O=[N+]([O-])c1cc([As](=O)(O)O)ccc1O
inactive: dose: 6.25 mg/kg/injection, schedule: Q04DX003 (ip), vehicle: saline 100 % of control | dose: 12.5 mg/kg/injection, schedule: Q04DX003 (ip), vehicle: saline 100 % of control | dose: 25.0 mg/kg/injection, schedule: Q04DX003 (ip), vehicle: saline 92 % of control and 100 % of control | dose: 50.0 mg/kg/injection, schedule: Q04DX003 (ip), vehicle: saline 106 % of control | [1] 105 % of control

COC(=O)C1=CN=NC1=[N+]=[N-]
inactive: dose: 10.0 mg/kg/injection, schedule: Q01DX001 (ip), vehicle: saline 103 % of control | dose: 20.0 mg/kg/injection, schedule: Q01DX001 (ip), vehicle: saline 97 % of control

COc1cc2cc3c4cc(OC)c(OC)cc4cc[n+]3c(/C=C/c3cc(OC)c(OC)c(OC)c3)c2cc1OC
inactive: [2] 96 % of control and 106 % of control | [3] 94 % of control | [4] 97 % of control and 104 % of control | [5] 96 % of control | [6] 104 % of control and 92 % of control | [7] 91 % of control

O=C(CCCCCCCC(=O)Nc1cc(C2=NCCN2)cc(C2=NCCN2)c1)Nc1cc(C2=NCCN2)cc(C2=NCCN2)c1
inactive: dose: 12.0 mg/kg/injection, schedule: Q01DX Z (ip), vehicle: carboxymethylcellulose (CMC) 105 % of control

C=C1CC2(C)C(=O)CCCC2OC1=O (centres undefined)
inactive: dose: 25.0 mg/kg/injection, schedule: Q01DX001 (ip), vehicle: saline 91 % of control | dose: 50.0 mg/kg/injection, schedule: Q01DX001 (ip), vehicle: saline 100 % of control | dose: 100.0 mg/kg/injection, schedule: Q01DX001 (ip), vehicle: saline with Tween-80 102 % of control | dose: 100.0 mg/kg/injection, schedule: Q01DX001 (ip), vehicle: saline 106 % of control

CN(C)c1ccc(C=O)c(Oc2ccccc2)c1
inactive: [8] 96 % of control | [9] 97 % of control | [10] 110 % of control | [11] 97 % of control | [12] 106 % of control | [13] 94 % of control

O=C(O)c1ccccc1C(=O)c1ccc(Cl)cc1
inactive: [8] 100 % of control | [10] 86 % of control | [12] 100 % of control

Cc1cc(N(CCOS(C)(=O)=O)CCOS(C)(=O)=O)ccc1C=Nc1ccc(-c2csc(-c3ccc(Cl)cc3)n2)cc1
inactive: [14] 112 % of control | [15] 86 % of control

Cc1ccccc1C(C)(O)c1cnc(C)n1Cc1ccccc1 (centres undefined)
inactive: dose: 100.0 mg/kg/injection, schedule: Q01DX009 (ip), vehicle: saline with Tween-80 94 % of control and 98 % of control | [2] 97 % of control and 103 % of control | dose: 200.0 mg/kg/injection, schedule: Q01DX009 (ip), vehicle: saline with Tween-80 95 % of control and 103 % of control | [4] 97 % of control and 100 % of control | dose: 400.0 mg/kg/injection, schedule: Q01DX009 (ip), vehicle: saline with Tween-80 98 % of control and 100 % of control | [6] 95 % of control and 101 % of control

Cc1ccc(C)c(NC(=O)c2ccc(C(=O)O)cc2C(=O)O)c1
inactive: [8] 95 % of control | [16] 98 % of control | [10] 100 % of control | dose: 200.0 mg/kg/injection, schedule: Q04DX002 (ip), vehicle: Klucel (hydroxypropylcellulose) (HPC) 98 % of control | [12] 97 % of control | dose: 400.0 mg/kg/injection, schedule: Q04DX002 (ip), vehicle: Klucel (hydroxypropylcellulose) (HPC) 95 % of control

Cc1cc(C)c(NC(=O)Nc2cccc3ccccc23)c(C)c1
inactive: [14] 95 % of control | [15] 96 % of control | [8] 96 % of control and 103 % of control | [9] 96 % of control | [10] 92 % of control | [11] 93 % of control | [12] 91 % of control | [13] 96 % of control

O=c1c2ccccc2ncn1CCCBr
inactive: dose: 75.0 mg/kg/injection, schedule: Q01DX009 (ip), vehicle: saline 95 % of control | dose: 150.0 mg/kg/injection, schedule: Q01DX009 (ip), vehicle: saline 103 % of control | dose: 300.0 mg/kg/injection, schedule: Q01DX009 (ip), vehicle: saline 95 % of control

CCOC(=O)c1cc(C=O)oc1C
inactive: [14] 91 % of control | [15] 97 % of control | [8] 103 % of control | [9] 95 % of control | [11] 93 % of control | [13] 90 % of control

Cc1ccc([N+](=O)[O-])cc1NC(=O)Nc1ccc([N+](=O)[O-])cc1
inactive: [8] 90 % of control | [10] 90 % of control | [12] 98 % of control

O=[N+]([O-])C=C([SH2+])[SH2+].O=[N+]([O-])C=C([SH2+])[SH2+].[Ni+2].c1ccc(C[P+](c2ccccc2)(c2ccccc2)c2ccccc2)cc1
inactive: dose: 75.0 mg/kg/injection, schedule: Q04DX003 (ip), vehicle: saline 101 % of control | dose: 150.0 mg/kg/injection, schedule: Q04DX003 (ip), vehicle: saline 101 % of control

O=[N+]([O-])c1cccc2c(Br)cccc12
inactive: dose: 100.0 mg/kg/injection, schedule: Q01DX009 (ip), vehicle: saline 106 % of control | [1] 103 % of control | dose: 200.0 mg/kg/injection, schedule: Q01DX009 (ip), vehicle: saline 95 % of control | dose: 200.0 mg/kg/injection, schedule: Q04DX003 (ip), vehicle: saline 100 % of control | dose: 400.0 mg/kg/injection, schedule: Q01DX009 (ip), vehicle: saline 95 % of control | dose: 400.0 mg/kg/injection, schedule: Q04DX003 (ip), vehicle: saline 106 % of control

CC(=O)OC(C)C(C)Br (centres undefined)
inactive: dose: 50.0 mg/kg/injection, schedule: Q04DX002 (ip), vehicle: Klucel (hydroxypropylcellulose) (HPC) 93 % of control | dose: 100.0 mg/kg/injection, schedule: Q01DX001 (ip), vehicle: acetone 89 % of control | [16] 100 % of control | dose: 200.0 mg/kg/injection, schedule: Q01DX001 (ip), vehicle: acetone 92 % of control

N#CC(C#N)=C/C=C/C=C/c1c(Cl)cccc1Cl
inactive: [3] 92 % of control | [5] 103 % of control | [7] 105 % of control

CC(=O)c1c(O)c(Br)c(C)oc1=O (tested in a mixture with another compound)
inactive: dose: 6.25 mg/kg/injection, schedule: Q01DX009 (ip), vehicle: saline with Tween-80 89 % of control | dose: 12.5 mg/kg/injection, schedule: Q01DX009 (ip), vehicle: saline with Tween-80 100 % of control | dose: 25.0 mg/kg/injection, schedule: Q01DX009 (ip), vehicle: saline with Tween-80 93 % of control

O=C1NC(c2ccco2)N2C(=O)NC(c3ccco3)N12 (centres undefined)
inactive: dose: 100.0 mg/kg/injection, schedule: Q01DX009 (ip), vehicle: gum acacia 90 % of control | dose: 100.0 mg/kg/injection, schedule: Q04DX003 (ip), vehicle: gum acacia 101 % of control | dose: 200.0 mg/kg/injection, schedule: Q01DX009 (ip), vehicle: gum acacia 88 % of control | dose: 200.0 mg/kg/injection, schedule: Q04DX003 (ip), vehicle: gum acacia 95 % of control | dose: 400.0 mg/kg/injection, schedule: Q01DX009 (ip), vehicle: gum acacia 88 % of control | dose: 400.0 mg/kg/injection, schedule: Q04DX003 (ip), vehicle: gum acacia 106 % of control

CC(=O)c1ccc(NCC2N=C(N)N=C(N)N2c2ccccc2)cc1 (centres undefined)
inactive: [8] 97 % of control | [9] 98 % of control | [10] 96 % of control | [11] 90 % of control
